{"source": "patent US8048454B2", "about": "“Methods and compositions related to regulation of cytokine production by glycogen synthase kinase 3 (GSK-3)” (priority 2004, dated 2011)", "key": {"human CD4+ T cells": {"system": "human CD4+ T cells", "assay": "Cytokine production by anti-CD3 stimulated purified CD4+ T cells (ELISA)", "type": "cell-based", "details": "plate-bound anti-CD3 10 μg/ml, 72 h", "procedure": "Supernatants were analyzed for […] (IFN-γ) and Th2- (IL-10) type cytokines by ELISA. […] Thus, inhibition of GSK-3 at the T cell level also suppresses inflammatory cytokines while increasing anti-inflammatory cytokine production. Moreover, inhibition of GSK-3 can enhance Th2-type immune responses while suppressing Th1-type responses."}, "C57BL/6 mice [1]": {"system": "C57BL/6 mice", "assay": "Endotoxin shock model, survival after LD100 of LPS", "type": "in vivo, mouse", "procedure": "Mice (sham-injected and LPS groups) were pre-treated with i.p. injection of 1 ml PBS containing 0.01% DMSO (vehicle control). SB216763-treated mice were administered 1 ml of PBS containing 30 μM of SB216763. After 2 h, mice pre-treated with SB216763 (denoted LPS+SB216763) or vehicle (denoted LPS group) were given 150 μg of LPS by i.p., injection. ** and *** indicate statistically significant differences at P<0.01 and P<0.001, respectively, as compared to LPS-treated group. Results represent the mean of 30 mice/group.\n(§1) C57BL/6 mice were bred and maintained within the pathogen-free animal facility at UAB. Experimental endotoxic shock was induced in age- and sex-matched C57BL/6 mice (18 to 23 g) by intraperitoneal injection of 150 μg of LPS in PBS containing 0.1% DMSO. Mice pre-treated with the GSK-3 inhibitor SB216763 received 1 ml of PBS containing 30 μM of SB216763 (DMSO was at 0.01%) by i.p. injection. LPS-control and sham-injected mice were pre-treated (i.p. injection) with 1 ml of PBS containing 0.1% DMSO. Mice given the GSK-3 inhibitor SB216763 after LPS challenge received 1 ml of PBS containing 30 μM of SB216763 (DMSO was at 0.01%) by i.p. injection. LPS-control and sham-injected mice were administered (i.p.) 1 ml of PBS containing 0.01% DMSO. At 4 h after injection, blood from all groups of mice was obtained by retro-orbital plexus bleeding.\nMale C57BL/6 mice (8 to 12 weeks of age; 18 to 23 g) were injected via the intraperitoneal route with an LD100 ([…]) of E. coli K235 LPS in 200 µl of PBS containing 0.1% DMSO. Mice were monitored over a 10 day period for survivability."}, "CBP": {"system": "CBP", "assay": "Co-immunoprecipitation of CBP with NF-κB p65 and CREB", "type": "cell-based, human", "details": "SB216763 10 μM; LPS-stimulated monocytes", "procedure": "(§2) Human monocytes were pre-treated with medium only or 10 μM of SB216763 and then stimulated for the indicated time points with 1 μg/ml of E. coli LPS. The ability of E. coli LPS in the presence or absence of SB216763 to mediate the degradation and re-synthesis of (A) IκB-α and the phosphorylation of (B) NF-κB p65 (ser 276 or ser 536) were assessed by Western blot. […] The interaction of CBP with (F) NF-κB p65 and (G) CREB after treatment of cells with SB216763 (10 μM) were assessed by immunoprecipitation of CBP and probed for (F) NF-κB or (G) CREB levels by immunoblot. (H) To determine the functional effect of GSK-3 regulating CREB activity in LPS-stimulated monocytes, cells were pre-treated for 96 h with medium only, siRNA targeting CREB, or control siRNA and assayed by Western blot for the levels of CREB and total p38. […]\nMoreover, it has been shown that GSK-3 can negatively regulate the activation and nuclear binding properties of CREB. Therefore, it was next determined how GSK-3 inhibition was regulating the ability of nuclear CREB (ser133) to bind its consensus sequence (FIG. 9E). […] Since the levels of CREB binding activity were augmented by GSK-3 inhibition, it was determined if GSK-3 inhibition was affecting the ability of CREB (ser133) and NF-κ p65 (ser276) to associate with CBP by co-immunoprecipitation (FIG. 9F, G)."}, "[2]": {"system": "NF-κB p50, NF-κB p65, CREB", "assay": "Nuclear NF-κB p50, NF-κB p65 and CREB binding activity (TransAM kit)", "type": "cell-based, human", "details": "SB216763 pre-treatment 1 h; LPS; vs LPS alone", "procedure": "Human monocytes were pre-treated with medium only or 10 μM of SB216763 and then stimulated for the indicated time points with 1 μg/ml of E. coli LPS. The ability of E. coli LPS in the presence or absence of SB216763 to mediate the degradation and re-synthesis of (A) IκB-α and the phosphorylation of (B) NF-κB p65 (ser 276 or ser 536) were assessed by Western blot. […] The interaction of CBP with (F) NF-κB p65 and (G) CREB after treatment of cells with SB216763 (10 μM) were assessed by immunoprecipitation of CBP and probed for (F) NF-κB or (G) CREB levels by immunoblot. (H) To determine the functional effect of GSK-3 regulating CREB activity in LPS-stimulated monocytes, cells were pre-treated for 96 h with medium only, siRNA targeting CREB, or control siRNA and assayed by Western blot for the levels of CREB and total p38. (I, J) Monocytes pre-treated with medium only, siRNA control, or siRNA targeting CREB for 96 h were stimulated with E. coli LPS for 20 h and cell-free supernatants assayed by ELISA for the levels of (I) IL-10 and (J) IL-12 p40. To ensure equal protein loading, immunoblots were striped and re-probed with total p38 (A, B, H) or total CBP (F, G). For nuclear extract analysis of (C) NF-κB p65, (D) NF-κB p50, and (E) CREB, optical density values were normalized by loading a standardized amount of protein, as indicated in the figure. * indicates statistical significance at P<0.05. For A, B, E, F, G, H, and I, results are representative of 3 separate experiments. For C and D, results represent the mean±SD of 3 separate experiments.\nHuman monocytes in 24-well polystyrene tissue culture plates were pretreated for 1 h with SB216763 or 0.01% DMSO and then incubated with medium alone or LPS for the indicated time points. Cells were collected, washed two times in PBS, and then assayed for activity using the TransAM kit specific for the given transcription factor (Active Motif, Carlsbad, Calif.). […]"}, "C57BL/6 mice [3]": {"system": "C57BL/6 mice", "assay": "In vivo cytokine production in LPS-challenged mice (plasma ELISA)", "design": "species or system mouse", "details": "SB216763 2 h before 150 μg LPS i.p.", "procedure": "SB216763-treated mice were given 1 ml of PBS containing 30 μM of SB216763. Sham-injected and LPS groups were given 1 ml of PBS containing vehicle (0.01% DMSO). After 2 h, mice pre-treated with SB216763 (denoted LPS+SB216763) or vehicle (denoted LPS group) were given 150 μg of LPS by i.p., injection. *** indicates statistically significant differences at P<0.001, as compared to LPS-treated group. Results represent the mean±SD of 10 mice/group.\nas §1\nHuman or mouse IL-1β, IL-10, IL-12 p40, and IFN-γ levels in the plasma of mice or cell-culture supernatants were determined by using enzyme-linked immunosorbent assay (ELISA) kits from R&D systems or Ebioscience according to manufacturer's instructions."}, "human monocytes": {"system": "human monocytes", "assay": "Cytokine production by E. coli LPS-stimulated monocytes (ELISA)", "type": "cell-based", "procedure": "FIG. 2 The ability of the PI3K pathway to differentially modulate the levels of pro- and anti-inflammatory cytokines is mediated by inhibition of GSK-3. Human monocytes were pre-incubated with medium only, 10 μM SB216763, 10 mM LiCl, 200 nM Azakenpaullone, BIO (50 nM), 1 μM Akt-i, or 20 μM LY294002 for 1 h and then stimulated with 1 μg/ml of E. coli LPS for 20 h. Cell-free supernatants were collected and assessed for (A, C) IL-10, (B, D) IL-12 p40, (E) TNF-α, or (F) IL-6 production by ELISA. * and *** indicates significant differences (P<0.05 and P<0.001, respectively) compared to E. coli LPS stimulated cultures. Results represent the mean±SD of 5 separate experiments.\n(A) Monocytes were pre-treated for 96 h with medium, siRNA targeting GSK-3β, or control siRNA and assayed by Western blot for the levels of total GSK-3β and total p38. (B, C) Monocytes were pre-treated with medium only, siRNA control, or siRNA targeting GSK-3β for 96 h, stimulated with E. coli LPS for 20 h, and cell-free supernatants assayed by ELISA for the levels of (B) IL-10 and (C) IL-12 p40. * indicates significant differences (P<0.05) compared to LPS stimulated cultures. Results represent the mean±SD of 3 separate experiments.\nas §2, with “p38. (I, J) Monocytes pre-treated with medium only, siRNA control, or siRNA targeting CREB for 96 h were stimulated with E. coli LPS for 20 h and cell-free supernatants assayed by ELISA for the levels of (I) IL-10 and (J) IL-12 p40. To ensure equal protein loading, immunoblots were striped and re-probed with total p38 (A, B, H) or total CBP (F, G).” for “p38.”\nHuman or mouse IL-1β, IL-10, IL-12 p40, and IFN-γ levels in the plasma of mice or cell-culture supernatants were determined by using enzyme-linked immunosorbent assay (ELISA) kits from R&D systems or Ebioscience according to manufacturer's instructions. […]"}, "NF-κB": {"system": "NF-κB", "assay": "IκB-α degradation and NF-κB p65 phosphorylation, Western blot, LPS-stimulated monocytes", "type": "cell-based, human", "details": "10 μM SB216763, 1 μg/ml E. coli LPS", "procedure": "as §2, with “immunoblot.” for “immunoblot. (H) To determine the functional effect of GSK-3 regulating CREB activity in LPS-stimulated monocytes, cells were pre-treated for 96 h with medium only, siRNA targeting CREB, or control siRNA and assayed by Western blot for the levels of CREB and total p38.”\nTo investigate the underlying cellular mechanism responsible for the ability of GSK-3 inhibition to suppress the production of pro-inflammatory cytokines while concurrently augmenting the production of the anti-inflammatory cytokine IL-10, the ability of how GSK-3 influenced the activation of downstream transcription factors involved in the inflammatory response was assessed. […] Since GSK-3 can mediate the phosphorylation of the p65 subunit of NF-κB, it was next determined if GSK-3 inhibition was exerting an effect on the phosphorylation status of the p65 subunit of NF-κB. […] Therefore, the nuclear levels of the NF-κB subunits p50 and p65 were analyzed in the presence or absence of the GSK-3 inhibitor SB216763 (FIG. 9C, D). […]"}}, "note": "“Also recorded” adds a separate entry of the source."}
{"smiles": "Cn1cc(C2=C(c3ccc(Cl)cc3Cl)C(=O)NC2=O)c2ccccc21", "note": "[SB216763]", "values": [{"measurement": "levels of IL-10", "setting": "human CD4+ T cells", "result": "significantly enhanced"}, {"measurement": "production of IFN-γ", "setting": "human CD4+ T cells", "result": "suppress"}, {"measurement": "LPS (endotoxin) lethality (in words)", "setting": "C57BL/6 mice [1]; given 2 h before or 2 h after LD100 of LPS", "result": "mediates protection; also recorded: severe attenuation"}, {"measurement": "mice survived", "setting": "C57BL/6 mice [1]; given 2 hours after LD100 of LPS, 1 ml PBS with 30 μM i.p., 0% in control-treated mice", "result": "approximately 55%"}, {"measurement": "mice protected from death", "setting": "C57BL/6 mice [1]; given 2 hours before LD100 of LPS, 1 ml PBS with 30 μM i.p., 0% in control-treated mice", "result": "greater than 70%"}, {"measurement": "late deaths among survivors", "setting": "C57BL/6 mice [1]; monitored over a 10-day period, both treatment groups", "result": "no late deaths"}, {"measurement": "levels of CREB bound to CBP", "setting": "CBP", "result": "potently augmented"}, {"measurement": "levels of p65 associated with CBP", "setting": "CBP", "result": "pronounced decrease"}, {"measurement": "DNA-binding properties of CREB", "setting": "[2]", "result": "significant increase"}, {"measurement": "nuclear levels of NF-κB p50 able to bind its consensus sequence", "setting": "[2]", "result": "did not appear to be influenced"}, {"measurement": "nuclear levels of NF-κB p65 able to bind its consensus sequence", "setting": "[2]", "result": "did not appear to be influenced"}, {"measurement": "reduction of systemic levels of several pro-inflammatory cytokines", "setting": "C57BL/6 mice [3]; IL-1β, IL-12 p40, IFN-γ, vs LPS-treated controls", "result": "more than 50%"}, {"measurement": "in vivo (systemic) levels of IL-1β, IL-12 and IFN-γ (in words)", "setting": "C57BL/6 mice [3]", "result": "suppresses; also recorded: profound decrease"}, {"measurement": "in vivo levels of IL-10 (in words)", "setting": "C57BL/6 mice [3]", "result": "enhanced"}, {"measurement": "increase of in vivo production of IL-10", "setting": "C57BL/6 mice [3]; vs LPS-treated controls", "result": "more than 2 fold"}, {"measurement": "IL-10 levels compared to E. coli LPS-treated monocytes (in words)", "setting": "human monocytes; inhibitor pre-incubation 1 h, 1 μg/ml E. coli LPS 20 h", "result": "approximate three-fold increase"}, {"measurement": "reduction in IL-12 p40 levels", "setting": "human monocytes; inhibitor pre-incubation 1 h, 1 μg/ml E. coli LPS 20 h, vs LPS alone", "result": "~80", "unit": "%"}, {"measurement": "level of IL-12 p40 in cultures pre-treated with siRNA against CREB (in words)", "setting": "human monocytes; siRNA against CREB 96 h plus SB216763, LPS", "result": "did not appear to be altered"}, {"measurement": "IL-10 levels in cells pretreated with siRNA targeting CREB (in words)", "setting": "human monocytes; siRNA targeting CREB 96 h plus SB216763, LPS, vs LPS stimulated controls", "result": "did not exhibit any discernible increase"}, {"measurement": "rate or extent of degradation or re-synthesis of IκB-α protein", "setting": "NF-κB", "result": "failed to alter"}, {"measurement": "level and duration of p65 phosphorylation (ser276 or ser536)", "setting": "NF-κB; vs LPS alone", "result": "Neither the level nor duration"}]}
